Experimental data as given in patent publication US20220273008A1, “PLANT BODY CONTAINING NOVEL STEVIOL GLYCOSIDE” (SUNTORY HOLDINGS LIMITED, priority 2019, published 2022).
Values joined by “and” are separate entries in the source; they are usually repeats but may differ in a detail not shown here. Equal entries are not always repeated.

Key:
[1] = Evaluation of sweetness level: choosing the sugar-added sample of equivalent sweetness intensity, trained panelists; format: in vivo, human; details: for Sweetness level, Average / Sweetness level, Highest / Sweetness level, Lowest: 48 mg in 400 mL pure water vs sugar samples of Brix 3.0 to 5.0, relative to sugar; for sweetness compared with sugar (in words): in vivo
Procedure: In order to evaluate the sweetness levels of Novel steviol glycosides A and B, samples were prepared by adding sugar to pure water to give Brix of 3.0 to 5.0 in 0.5 increments. Compounds 15 and 17 obtained by the chemical syntheses were used as Novel steviol glycosides A and B, respectively, where 48 mg of each sample was dissolved in 400 mL of pure water to be tested. In addition, samples were also prepared for comparison by dissolving 48 mg of each of Reb.A, Reb.D and Reb.M in 400 mL of pure water.

[2] = Sensory evaluation of taste quality of beverage samples (sweetness on-set, lingering sweet aftertaste, bitterness, lingering bitter aftertaste); format: in vivo, human; details: beverage samples in pure water adjusted to Brix 5 in terms of sugar, compared with Reb.A, Reb.D, Reb.M and sugar
Source text: In order to evaluate the taste quality of various steviol glycosides, Reb.A, Reb.D, Reb.M, sugar and Novel steviol glycoside A (Compound 15) were each added to pure water to prepare beverage samples. All of the beverage samples were adjusted to have final sweetness level (Brix) of 5 in terms of sugar (sucrose), and thus the sweetness levels of Reb.A, Reb.D, Reb.M and Novel steviol glycoside A (Compound 15) were 312, 317, 341 and 354, respectively.
(§1) The resulting beverage samples were subjected to sensory evaluation for rating the attributes, which were sweetness on-set, lingering sweet aftertaste, bitterness and lingering bitter aftertaste. Panelists who had been trained about sensory attributes of sweeteners (7 members) evaluated based on the following evaluation criteria. For each evaluation item, the steviol glycosides were scored in 0.5 increments provided that the score of sugar was 3. A higher score represents faster sweetness on-set, shorter lingering sweet aftertaste, less bitterness and shorter lingering bitter aftertaste. The evaluation scores shown in the diagram are the average scores of the scores from the 8 panelists.
In order to evaluate the taste quality of various steviol glycosides, Reb.A, Reb.D, Reb.M, sugar and Novel steviol glycoside B (Compound 17) were each added to pure water to prepare beverage samples. All of the beverage samples were adjusted to have final sweetness level (Brix) of 5 in terms of sugar (sucrose), and thus the sweetness levels of Reb.A, Reb.D, Reb.M and Novel steviol glycoside B (Compound 17) were 288, 310, 324 and 250, respectively.
as §1, with “shorter lingering aftertaste. The” for “shorter lingering bitter aftertaste. The”, “from the 6 panelists.” for “from the 8 panelists.”

[3] = background art; cited from earlier work
[4] = evaluation of Novel steviol glycoside A (Table 10), 7 panelists
[5] = evaluation of Novel steviol glycoside B (Table 11)

| Compound | Sweetness level, Average [1, 4] | Sweetness level, Highest [1, 4] | Sweetness level, Lowest [1, 4] | sweetness compared with sugar (in words) [1] | bitterness [2] | Sweetness level, Average [1, 5] | Sweetness level, Highest [1, 5] | Sweetness level, Lowest [1, 5] | sweetness, times the sweetness of sugar [3] | further results |
| --- | --- | --- | --- | --- | --- | --- | --- | --- | --- | --- |
| C=C1CC23CCC4C(C)(C(=O)OC5OC(CO)C(O)C(O)C5OC5OCC(O)C(O)C5O)CCCC4(C)C2CCC1(OC1OC(CO)C(O)C(OC2OC(CO)C(O)C(O)C2O)C1OC1OC(CO)C(O)C(O)C1O)C3 (stereo not drawn) [Novel steviol glycoside A] | 354 and 354.1 | 415.8 | 319.0 | sweeter than sugar | less bitterness as compared to other components including sugar |  |  |  |  | sweetness level higher in average than that of sugar ([1]; average of panelists, 48 mg in 400 mL pure water): about 354 times; lingering bitter aftertaste [2]: shorter lingering bitter aftertaste as compared to other glycosides; lingering sweet aftertaste [2]: less sweetness; bitterness ([2]; listed as Glycoside A): weaker bitterness than other components including sugar; lingering bitter aftertaste ([2]; listed as Glycoside A): less lingering sweet and bitter aftertastes; lingering sweet aftertaste ([2]; listed as Glycoside A): less lingering sweet and bitter aftertastes |
| C=C1CC23CCC4C(C)(C(=O)OC5OC(CO)C(O)C(OC6OC(CO)C(O)C(O)C6O)C5OC5OC(CO)C(O)C(O)C5O)CCCC4(C)C2CCC1(OC1OC(CO)C(O)C(OC2OC(CO)C(O)C(O)C2O)C1OC1OCC(O)C(O)C1O)C3 (stereo not drawn) [Novel steviol glycoside B] |  |  |  | sweeter than sugar | weaker bitterness than other steviol glycosides |  |  |  |  |  |
| C=C1C[C@@]23CC[C@H]4[C@@](C)(CCC[C@@]4(C)C(=O)O[C@@H]4O[C@H](CO)[C@@H](O)[C@H](O)[C@H]4O)[C@@H]2CC[C@]1(O[C@@H]1O[C@H](CO)[C@@H](O)[C@H](O[C@@H]2O[C@H](CO)[C@@H](O)[C@H](O)[C@H]2O)[C@H]1O[C@@H]1O[C@H](CO)[C@@H](O)[C@H](O)[C@H]1O)C3 [Reb A, rebaudioside A] | 312.0 | 398.9 | 243.0 |  |  | 288.3 | 329.2 | 239.5 | 350-450 times | Sweetness level, Average ([1]; evaluation of Novel steviol glycoside A (Table 10), 7 panelists, listed as Reb.A): 312; Sweetness level, Average ([1]; evaluation of Novel steviol glycoside B (Table 11), listed as Reb.A): 288 |
| C=C1C[C@@]23CC[C@H]4[C@@](C)(CCC[C@@]4(C)C(=O)O[C@@H]4O[C@H](CO)[C@@H](O)[C@H](O)[C@H]4O[C@@H]4O[C@H](CO)[C@@H](O)[C@H](O)[C@H]4O)[C@@H]2CC[C@]1(O[C@@H]1O[C@H](CO)[C@@H](O)[C@H](O[C@@H]2O[C@H](CO)[C@@H](O)[C@H](O)[C@H]2O)[C@H]1O[C@@H]1O[C@H](CO)[C@@H](O)[C@H](O)[C@H]1O)C3 [RebD, rebaudioside D] | 317.9 | 398.0 | 253.5 |  |  | 310.3 | 393.6 | 241.1 |  | Sweetness level, Average ([1]; evaluation of Novel steviol glycoside A (Table 10), 7 panelists, listed as Reb.D): 317; Sweetness level, Average ([1]; evaluation of Novel steviol glycoside B (Table 11), listed as Reb.D): 310 |
| C=C1C[C@@]23CC[C@H]4[C@@](C)(CCC[C@@]4(C)C(=O)O[C@@H]4O[C@H](CO)[C@@H](O)[C@H](O[C@@H]5O[C@H](CO)[C@@H](O)[C@H](O)[C@H]5O)[C@H]4O[C@@H]4O[C@H](CO)[C@@H](O)[C@H](O)[C@H]4O)[C@@H]2CC[C@]1(O[C@@H]1O[C@H](CO)[C@@H](O)[C@H](O[C@@H]2O[C@H](CO)[C@@H](O)[C@H](O)[C@H]2O)[C@H]1O[C@@H]1O[C@H](CO)[C@@H](O)[C@H](O)[C@H]1O)C3 [RebM, rebaudioside M] | 341.1 | 352.2 | 286.0 |  |  | 323.6 | 373.4 | 236.5 |  | Sweetness level, Average ([1]; evaluation of Novel steviol glycoside A (Table 10), 7 panelists, listed as Reb.M): 341; Sweetness level, Average ([1]; evaluation of Novel steviol glycoside B (Table 11), listed as Reb.M): 324 |
| C=C1C[C@@]23CC[C@H]4[C@@](C)(CCC[C@@]4(C)C(=O)O[C@@H]4O[C@H](CO)[C@@H](O)[C@H](O)[C@H]4O)[C@@H]2CC[C@]1(O[C@@H]1O[C@H](CO)[C@@H](O)[C@H](O)[C@H]1O[C@@H]1O[C@H](CO)[C@@H](O)[C@H](O)[C@H]1O)C3 [Stevioside] |  |  |  |  |  |  |  |  | 250-300 times |  |
